According to ChEMBL document CHEMBL3507680, “University of Dundee, Gates Library screen for HepG2 cell viability”:

Test: Human HepG2 cell viability assay in 384 well format
Assay type: toxicity, cell-based
Design: dose 125 nL, time 70.5 hour; cytotoxicity at 70.5 h: concentration not given beside the values
Details: HepG2 cells, read-out: Inhibition

Structure (SMILES): CC(=O)NCC(=O)N1Cc2nccn2CC(CN2CCCC2=O)C1 (stereo not drawn)
- cytotoxicity at 70.5 h: -7.77%

Structure (SMILES): O=C(C1CC=CC1)N1Cc2nccn2CC(CN2CCCC2)C1 (stereo not drawn)
- cytotoxicity at 70.5 h: -4.01%

Structure (SMILES): Cn1ccc(C(=O)NC2CCC23CCN(C(=O)C2CCOCC2)CC3)c1 (stereo not drawn)
- cytotoxicity at 70.5 h: -4.15%

Structure (SMILES): CO[C@@H]1CCN(S(=O)(=O)c2cccs2)[C@H]1Cc1ccccc1
- cytotoxicity at 70.5 h: -0.149%

Structure (SMILES): CCOCC1CN(CC2CC2)Cc2cnn(C)c21 (stereo not drawn)
- cytotoxicity at 70.5 h: -8.87%

Structure (SMILES): CO[C@@H]1CCN(Cc2cccs2)[C@H]1Cc1ccncc1
- cytotoxicity at 70.5 h: -0.408%

Structure (SMILES): Cn1ccc(C(=O)NC2CCC23CCN(C(=O)c2cnccn2)CC3)c1 (stereo not drawn)
- cytotoxicity at 70.5 h: -7.61%

Structure (SMILES): Cn1ncc2c1C(COCC1CC1)CN(CC1CC1)C2 (stereo not drawn)
- cytotoxicity at 70.5 h: -6.33%

Structure (SMILES): Cn1ncc2c1C(COCC1CC1)CN(S(C)(=O)=O)C2 (stereo not drawn)
- cytotoxicity at 70.5 h: -9.85%

Structure (SMILES): O=C(NCc1cccnc1)N1CCn2c(Cn3cccn3)cnc2C1
- cytotoxicity at 70.5 h: -0.141%

Structure (SMILES): O=C(NCc1ccccc1)N1CCn2c(Cn3cccn3)cnc2C1
- cytotoxicity at 70.5 h: -2.08%

Structure (SMILES): CN(C)C(=O)N1CCc2c(COCC3CC3)cncc2C1
- cytotoxicity at 70.5 h: -4.34%

Structure (SMILES): O=C([C@@H]1CCCO1)N1CCn2c(Cn3cccn3)cnc2C1
- cytotoxicity at 70.5 h: -0.354%

Structure (SMILES): CCOCC(=O)N1CC[C@H]2[C@@H]1CCC(=O)N2Cc1csc(C)n1
- cytotoxicity at 70.5 h: -10.5%

Structure (SMILES): CCC(CC)CN1CCC2(CCCN(c3ncccn3)C2)C1 (stereo not drawn)
- cytotoxicity at 70.5 h: 25.1%

Structure (SMILES): Cc1ccc2c(c1)C1(CCN(C(N)=O)CC1)CN2C(=O)N(C)C
- cytotoxicity at 70.5 h: -7.46%

Structure (SMILES): O=C(c1cccnc1)N1CCc2c(COCC3CC3)cncc2C1
- cytotoxicity at 70.5 h: -2.77%

Structure (SMILES): O=C(c1ccncc1F)N1CCc2ncnc(N3CCOCC3)c2CC1
- cytotoxicity at 70.5 h: -9.98%

Structure (SMILES): CN(Cc1cccnc1)CC1CNCc2nccn2C1 (stereo not drawn)
- cytotoxicity at 70.5 h: 4.1%

Structure (SMILES): Cc1cccc(C(=O)N2CCc3c(COCC4CC4)cncc3C2)n1
- cytotoxicity at 70.5 h: -10.4%

Structure (SMILES): O=C(c1ccoc1)N1CCc2c(COCC3CC3)cncc2C1
- cytotoxicity at 70.5 h: 14.9%

Structure (SMILES): CN(C)C(=O)NC1COC2(CCN(Cc3ccco3)CC2)C1 (stereo not drawn)
- cytotoxicity at 70.5 h: -12.8%

Structure (SMILES): CN(C)C(=O)NC1COC2(CCN(S(=O)(=O)c3ccccc3)CC2)C1 (stereo not drawn)
- cytotoxicity at 70.5 h: -10.3%

Structure (SMILES): CN(C)C(=O)N1CC2(CCNCC2)c2cc(Cl)ccc21
- cytotoxicity at 70.5 h: 24.1%

Structure (SMILES): COCCNC(=O)[C@H]1C[C@H]2OCC[C@H]2N(Cc2ccoc2)C1
- cytotoxicity at 70.5 h: -3.39%

Structure (SMILES): O=C1CCCN1Cc1ncn2c1CN(Cc1cccs1)CCC2
- cytotoxicity at 70.5 h: -1.34%

Structure (SMILES): CC1CCN(C(=O)[C@@H]2C[C@H]3OCC[C@H]3N(Cc3ccoc3)C2)CC1
- cytotoxicity at 70.5 h: -2.6%

Structure (SMILES): Cc1noc([C@@H]2C[C@H]3OCC[C@H]3N(Cc3cc(C)c(C)o3)C2)n1
- cytotoxicity at 70.5 h: -6.09%

Structure (SMILES): Cc1cc(CN2C[C@@H]3COC[C@]3(CNC(=O)N(C)C)C2)no1
- cytotoxicity at 70.5 h: -1.07%

Structure (SMILES): CN(C)c1ncnc2c1CCN(C(=O)c1cccnc1)CC2
- cytotoxicity at 70.5 h: -6.66%

Structure (SMILES): CCc1ncnc2c1CCN(C(=O)c1ccncc1F)CC2
- cytotoxicity at 70.5 h: -6.52%

Structure (SMILES): O=C(NC1CC1)N1CCn2c(Cn3cccn3)cnc2C1
- cytotoxicity at 70.5 h: -5.68%

Structure (SMILES): CCOCC1CN(C(=O)Cc2ccsc2)Cc2ccnn2C1 (stereo not drawn)
- cytotoxicity at 70.5 h: -6.83%

Structure (SMILES): O=C1CC(c2ccncc2)C2(CCN(C(=O)c3cccs3)CC2)N1 (stereo not drawn)
- cytotoxicity at 70.5 h: 43.8%

Structure (SMILES): Cn1cnc2c1C(COCC1CCOCC1)CN(C(=O)c1ccco1)C2 (stereo not drawn)
- cytotoxicity at 70.5 h: -8.23%

Structure (SMILES): Cc1ccccc1C(=O)N1C[C@@H]2CCN(c3cccnc3)C[C@@H]2C1
- cytotoxicity at 70.5 h: -4.88%

Structure (SMILES): O=C(c1ccc(F)cc1)N1C[C@@H]2CCN(c3cccnc3)C[C@@H]2C1
- cytotoxicity at 70.5 h: -11.2%

Structure (SMILES): Cc1ccc(C(=O)N2C[C@@H]3CCN(c4cccnc4)C[C@@H]3C2)cn1
- cytotoxicity at 70.5 h: -12.4%

Structure (SMILES): O=C(C1CCCC1)N1C[C@@H]2CCN(c3cccnc3)C[C@@H]2C1
- cytotoxicity at 70.5 h: -11.4%

Structure (SMILES): Cc1noc(C)c1CN1Cc2cnn(C)c2C(COCC2CC2)C1 (stereo not drawn)
- cytotoxicity at 70.5 h: -10.8%

Structure (SMILES): c1ccc(CN2CCc3ncnc(-c4ccncc4)c3CC2)nc1
- cytotoxicity at 70.5 h: 22.4%

Structure (SMILES): CCOCC1CN(CCN2CCCCC2)Cc2cnn(C)c21 (stereo not drawn)
- cytotoxicity at 70.5 h: 2.16%

Structure (SMILES): Cn1cnc2c1C(COCC1CCOCC1)CN(Cc1ccccn1)C2 (stereo not drawn)
- cytotoxicity at 70.5 h: -15.9%
